# Assay results reported in PMC11790956, “A microscale thermophoresis-based enzymatic RNA methyltransferase assay enables the discovery of DNMT2 inhibitors” (Communications Chemistry, 2025).
# “Also recorded” adds a separate entry of the source.
# Columns and labels:
# DNMT2-tRNA complex = target: T1, DNMT2-tRNA complex (Homo sapiens, UniProt O14717); assay: Electrophoretic mobility shift assay (EMSA) of the DNMT2-tRNA complex; assay type: binding; conditions: 500 µM compound, DNMT2 10 µM, tRNAAsp 5 µM
# T1 construct: made in house
# T1 sequence (O14717 1-391): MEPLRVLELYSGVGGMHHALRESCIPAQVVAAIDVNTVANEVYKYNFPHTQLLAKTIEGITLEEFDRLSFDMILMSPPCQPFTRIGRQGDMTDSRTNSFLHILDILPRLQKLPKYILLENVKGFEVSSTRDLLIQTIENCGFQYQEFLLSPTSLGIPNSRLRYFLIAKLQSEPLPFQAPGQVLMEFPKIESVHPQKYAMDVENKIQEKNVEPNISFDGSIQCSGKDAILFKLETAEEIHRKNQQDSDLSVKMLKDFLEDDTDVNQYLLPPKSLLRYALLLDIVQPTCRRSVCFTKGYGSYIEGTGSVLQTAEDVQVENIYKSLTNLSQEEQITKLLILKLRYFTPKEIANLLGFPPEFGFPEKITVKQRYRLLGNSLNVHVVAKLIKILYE
# Protocol: We speculated these hits might bind very weakly to the tRNA-DNMT2 interaction site and by this inhibit DNMT2 activity. To test this hypothesis, we performed an electrophoretic mobility shift assay (EMSA) using tRNA^Asp (5 µM) and DNMT2 (10 µM) compared to the tRNA sample in absence of the DNMT2 protein (SI Fig. 4)[33]. […] Subsequently, we treated the DNMT2-tRNA complex with all hit compounds at 500 µM and observed their potential to disrupt the complex.
# DNMT2 (10 µM) was mixed with tRNA^Asp (5 µM) and treated with 500 µM of the respective screening hit compound in DNMT2 assay buffer (100 mM Tris-HCl, pH 8, 100 mM NH4OAc, 0.1 mM EDTA, 10 mM MgCl2, 10 mM DTT). Subsequently, reaction samples (each 5 µL) were loaded to a native 10% polyacrylamide gel and separated electrophoretically (1 h, 180 V) in 1x TBE. RNA was stained in situ with 1x GelRed and PAGE analysis was conducted by fluorescence scanning at an excitation wavelength of 532 nm (Amersham Typhoon 9400). Positive control: DNMT2+tRNA (band at high molecular weights); negative control: only tRNA (band at low molecular weights).
# SI Figure 4. Electrophore?c mobility shi? assay (EMSA) to inves?gate the inﬂuence of screening hits on the DNMT2-tRNA complex forma?on. D NMT2 (10 µ M ) was mixe d w it h t RNAAsp (5 µM) and treated with 50 0 µM of the respec?ve screening hit compound in DNMT2 assay buﬀer. All reac?on samples (each 5 µL) were loaded to a na?ve 10% polyacr ylamide gel and separated electrophore?cally (1 h, 1 80 V) in 1x TBE. RNA was stained in situ with 1x GelRed and PAGE analysis was conducted by ﬂuorescence scanning at an excita?on wavelength of 532 nm (Amersham Typhoon 9400). Po s i ? ve control: DNMT2+tRNA (band at high molecular weights); nega?ve control: only tRNA (band at low
# DNMT2 [1] = target: T2, DNMT2 (Homo sapiens, UniProt O14717); assay: DNMT2 enzymatic split aptamer MST assay; assay type: biochemical; conditions: for IC50: MST-derived, 250 nM DNMT2, 5 µM tRNA, 0.9 µM SAM
# T2 construct: made in house
# T2 sequence (O14717 1-391): T1 sequence (O14717 1-391)
# Protocol: The enzyme kinetics were characterized by calculating the Michaelis-Menten constant (KM or kcat) and inhibitory constants (IC50 resp. KI).
# The final drug compound concentration was adjusted to 500 µM for the epigenetic drug library (Fig. 5) resp. 100 µM for the covalent compound library (Fig. 6), and the enzymatic reaction was incubated for 30 min at 25 °C. Subsequently, enzymatic reactions were terminated by the addition of 0.3% SDS, and the product SAH was quantified by the split aptamer MST assay (Figs. 5A, B, 6A).
# DNMT2 [2] = target: T2, DNMT2; assay: DNMT2 fluorescence polarization (FP) FTAD displacement assay; assay type: binding
# Protocol: Fluorescence polarization assays were conducted with a similar sample composition as described for FTAD-MST assays as described previously. Triplicates (50 µL) were prepared in black 96-well half-area plates (Greiner) and measured using a Spark 10 M plate reader (Tecan) equipped with polarization filters coupled to a monochromator setup (FTAD: λex = 480 nm, λem = 530 nm). Polarization values (in mP) were calculated from polarization-specific parallel and orthogonal fluorescence intensities according to the Tecan in-built calculation routine.
# Reversibility of alexidine binding to DNMT2 was evaluated with a modified FP-assay setup. Briefly, reaction mixtures containing alexidine were prepared in black 96-well half-area plates, and after FP measurement, the volume of one well (50 µL) was collected and applied to a Zeba™ Spin Desalting Column (7 K MWCO) while 5 µL of a 10x DNMT2 buffer solution (500 mM HEPES, 1.5 M NaCl, 10 mM dithiothreitol (DTT), 1% PEG-8000, 0.5% polysorbate-20, pH 7.4) was placed in the collection tube attached to the SEC column. This procedure separated alexidine and restored the initial composition of the DNMT2 assay solution.
# Kinetic FP assays were performed to assess the time-dependent inactivation of DNMT2 treated with covalent inhibitors. Briefly, samples contained 2 µM DNMT2, 100 nM FTAD probe, and 1.3% DMSO in DNMT2 MST buffer. Inhibitors were added from DMSO stocks. Negative inhibition control was performed by mock treatment with DMSO. Reactions were initiated by the addition of the Cpd 11 (adamantanyl-acryloylurea) and monitored for 120 min at 25 °C in a Tecan Spark 10 M plate reader (FTAD: λex = 480 nm, λem = 530 nm) The irreversible inhibition kinetics were analyzed as described previously[35],[36].
# [3] = test system: aptaSAH1&2 SAH split aptamer; assay: Split aptamer (aptaSAH1&2) MST ligand titration; assay type: binding, D. aromatica
# Protocol: To establish our experimental setup, we mixed both aptamer fragment oligonucleotides at equimolar concentrations (final: 50 nM) and titrated series of SAH resp. SAM dilutions to this prototypical SAH biosensor. […] Furthermore, MST assays require only 10 µL of sample volume per capillary compared to 30 µL per well in a 96-well plate supporting high-throughput applications in material consumption.
# To evaluate the effect of inhibitors on DNMT2 activity, we used two known inhibitors, SHO108 and SH112. These SAH derivatives were selected based on their documented efficacy for DNMT2[8],[26].
# For MTase assay detection by MST, enzyme reaction mixtures with a total volume of 10 µL per single treatment condition were prepared and incubated for the desired reaction times. Inhibitors were added from corresponding DMSO stocks to a final DMSO concentration of max. 5%. Afterward, reactions were quenched at a given reaction time by the addition of 1 µL sodium dodecyl sulfate (SDS, solution, 3% in water) per 10 µL reaction mixture and mixed well by pipetting. Subsequently, 1 µL of a 10× aptamer-containing detection master mix (200 mM Tris, pH 8.5, 200 mM MgCl2, 3 M NaCl, 10 mM urea, 0.2% Brij, 500 nM aptaSAH1, 500 nM aptaSAH2) was added to the quenched MTase reaction and incubated for 1 h at room temperature. Reaction mixtures were loaded directly to MST capillaries without further purification or sample processing.
# MST experiments were carried out in at least technical triplicates using a Monolith NT.115 instrument (NanoTemper Technologies) using Monolith standard capillaries and the blue excitation laser setup. The instrument was calibrated according to the manufacturer’s instructions. General settings were applied for all MST experiments as follows: manual temperature control: 25 °C, fluorescence measurement before MST: 4 s, MST (IR laser) on: 20 s, fluorescence after MST: 2 s, delay: 25 s. The laser power was adjusted to optimize the signal-to-noise ratio and the fluorescence signal. LED and MST power settings were chosen individually for each sample by adjusting the LED power to yield fluorescence signals of at least 300 units (blue laser) or 3000 units (red laser) and the MST power to achieve an appropriate thermophoretic response (standard setting: medium MST power). MST measurements were analyzed using the NT analysis software (version 1.5.41) and exported for statistical analysis and plotting in GraphPad Prism 7.01.
# DNMT2 [4] = target: T2, DNMT2; assay: DNMT2 radiometric 3H incorporation assay; assay type: biochemical
# Protocol: (§1) To further validate our findings on DNMT2, we compared the split aptamer inhibition assay results of both inhibitors with those obtained from a previously published orthogonal assay method, the radiometric ^3H incorporation assay[8],[26]. […] Using an additional non-enzymatic MTase assay technique, we also investigated the two DNMT2 inhibitors utilizing an orthogonal MST method based on a fluorescent tracer displacement assay (SI Fig. 1)[27],[28].
# Radiometric DNMT2 assays were carried out as described previously. HTRF MTase assays with the commercial AptaFluor SAH assay kit (BellBrook Labs) were performed as described in the manufacturer’s manual in 96-well format.
# DNMT2 [5] = target: T2, DNMT2; assay: Fluorescent tracer displacement assay (FTAD-MST assay); assay type: binding
# Description: as §1
# Fluorescent tracer displacement MST assays for orthogonal ligand evaluation were conducted as described previously. The samples contained 2 µM DNMT2, 100 nM FTAD probe, and 1.3% DMSO in MST buffer (50 mM HEPES, 150 mM NaCl, 1 mM dithiothreitol (DTT), 0.1% PEG-8000, 0.05% polysorbate-20, pH 7.4) supplemented with variable concentrations of the screening compounds. All samples were measured in triplicates in Monolith standard capillaries at 25 °C. The acquisition mode was set to “Nano-Blue” with an excitation power of 30% and a medium MST power. MST measurements were analyzed using the NT analysis software (version 1.5.41) and exported for statistical analysis and plotting in GraphPad Prism 7.01.
# [6] = inhibitor titrated up to 100 µM without enzyme or RNA substrate, compared to the SAH-positive control
structure (smiles),measurement,setting,value
c1cc(-c2cnn3cc(-c4ccc(OCCN5CCCCC5)cc4)cnc23)ccn1 [Cpd 1],influence on DNMT2-tRNA complex formation,DNMT2-tRNA complex,showed the potential to reverse the complex formation
COc1cc2nc(N3CCCN(C)CC3)nc(NC3CCN(Cc4ccccc4)CC3)c2cc1OC [Cpd 2],influence on DNMT2-tRNA complex formation,DNMT2-tRNA complex,showed the potential to reverse the complex formation
"CCCCC(CC)CNC(=N)NC(=N)NCCCCCCNC(=N)NC(=N)NCC(CC)CCCC (centres unmarked) [Cpd 3, alexidine]",DNMT2 inhibition at concentrations <500 µM,DNMT2 [1]; enzymatic aptamer assay,showed inhibition
same,fluorescence polarization in the presence of compound,DNMT2 [2]; DNMT2-FTAD complex alone 96 mP,5 mP
same,Kd,"DNMT2 [2]; DNMT2 FP assay, FTAD tracer",364 µM
same,reversibility of binding,DNMT2 [2]; FP displacement with SEC separation,fully reversible binder
same,displacement of FTAD tracer / binding to SAH-binding site,DNMT2 [2]; FP library screening with FTAD tracer,binding to the SAH-binding site; also recorded: able to compete with the fluorescent SAH-analog
same,fluorescence polarization restored after size-exclusion chromatography,DNMT2 [2]; after SEC removal of compound,92 mP
same,fluorescence polarization after second treatment,DNMT2 [2]; second treatment after SEC,4 mP
same,influence on DNMT2-tRNA complex formation,DNMT2-tRNA complex,do not inﬂuence the complex; also recorded: did not influence DNMT2-tRNA complex formation
CC(=O)c1cc([N+](=O)[O-])c(Sc2ccc(F)cc2F)s1 [Cpd 4],influence on DNMT2-tRNA complex formation,DNMT2-tRNA complex,do not inﬂuence the complex; also recorded: unable to disrupt the protein-tRNA complex
Cc1ncc(Cl)cc1NCc1ccc(C(=O)N[C@@H](CC2CCCC2)C(=O)NC2CC2)s1 [Cpd 5],influence on DNMT2-tRNA complex formation,DNMT2-tRNA complex,showed the potential to reverse the complex formation
COc1ccn2ncc(-c3nc4[nH]nc(NC(=O)c5ccc(F)cc5)c4cc3F)c2c1 [Cpd 6],influence on DNMT2-tRNA complex formation,DNMT2-tRNA complex,showed the potential to reverse the complex formation
Cc1cc(Nc2cc(Cl)nc(Oc3ccc([N+](=O)[O-])cc3)n2)n[nH]1 [Cpd 7],influence on DNMT2-tRNA complex formation,DNMT2-tRNA complex,do not inﬂuence the complex; also recorded: unable to disrupt the protein-tRNA complex
N[C@H](CNc1nc(-c2ccncc2)nc2sc3c(c12)CCCC3)Cc1ccccc1 [Cpd 8],influence on DNMT2-tRNA complex formation,DNMT2-tRNA complex,showed the potential to reverse the complex formation
CNC(=O)Nc1ccc2c(c1)CCC21OC(=O)N(CC(=O)N(Cc2ccc(F)cc2)C(C)C(F)(F)F)C1=O (centres unmarked) [Cpd 9],influence on DNMT2-tRNA complex formation,DNMT2-tRNA complex,showed the potential to reverse the complex formation
Cc1ccc(C(=O)COC(=O)c2cccc(NC(=O)c3ccc([N+](=O)[O-])cc3[N+](=O)[O-])c2)cc1 [Cpd 10],influence on DNMT2-tRNA complex formation,DNMT2-tRNA complex,do not inﬂuence the complex; also recorded: unable to disrupt the protein-tRNA complex
"Nc1ncnc2c1ncn2[C@@H]1O[C@H](CN(CC[C@H](N)C(=O)O)Cc2ccc(Cl)c(C(F)(F)F)c2)[C@@H](O)[C@H]1O [SH112, (S)-2-amino-4-((((2 R,3S,4 R,5 R)-5-(6-amino-9H-purin-9-yl)-3,4-dihydroxytetrahydrofuran-2-yl)methyl)(4-chloro-3-(trifluoromethyl)benzyl)amino)butanoic acid]",binding to split aptamer (MST shift),[3]; [6],not binding to the aptamer at relevant concentrations; also recorded: only minimal MST shifts
same,IC50,DNMT2 [4],15.6 ± 3.9 µM
same,IC50,DNMT2 [1],9.3 ± 1.7 µM
same,Kd,DNMT2 [5],7.8 µM
"C#CCN(CC[C@H](N)C(=O)O)C[C@H]1O[C@@H](n2cnc3c(N)ncnc32)[C@H](O)[C@@H]1O [SHO108, (S)-2-amino-4-((((2 R,3S,4 R,5 R)-5-(6-amino-9H-purin-9-yl)-3,4-dihydroxytetrahydrofuran-2-yl)methyl)(prop-2-yn-1-yl)amino)butanoic acid]",binding to split aptamer (MST shift),[3]; [6],not binding to the aptamer at relevant concentrations; also recorded: only minimal MST shifts
same,IC50,"DNMT2 [4]; orthogonal 3H-incorporation assay, read-out: IC50",9.3 ± 1.8 µM
same,IC50,DNMT2 [1],7.9 ± 1.8 µM
same,Kd,"DNMT2 [5]; MST FTAD tracer displacement, 2 µM DNMT2, 100 nM FTAD, read-out: KD",4.7 µM
Nc1ncnc2c1ncn2[C@@H]1O[C@H](C[C@@H](N)CC[C@H](N)C(=O)O)[C@@H](O)[C@H]1O [sinefungin],binding to split aptamer (MST shift),"[3]; SAH analogs at 10 µM, aptaSAH1&2 both 50 nM",slight MST shift
